The results in this text go back to US7579369B2, “CB 1 receptor inverse agonists” (Hoffmann-La Roche Inc., priority 2003, dated 2009).

The test addresses T1, human cannabis CB1 receptor (Homo sapiens, UniProt P21554).
T1 construct: expressed in transfected cells; host or cells: human embryonic kidney (HEK) cells, Semliki Forest Virus system, membrane preparation
Nature of the test: Affinity for cannabinoid CB1 receptors, [3H]-CP-55,940 radioligand binding on HEK cell membranes. The conditions noted are these: affinity for the CB1 receptor. As for the experimental part:
The affinity of the compounds of the invention for cannabinoid CB1 receptors was determined using membrane preparations of human embryonic kidney (HEK) cells in which the human cannabis CB1 receptor is transiently transfected using the Semliki Forest Virus system in conjunction with [3H]-CP-55,940 as radioligand. After incubation of a freshly prepared cell membrane preparation with the [3H]-ligand, with or without addition of compounds of the invention, separation of bound and free ligand was performed by filtration over glassfiber filters. Radioactivity on the filter was measured by liquid scintillation counting.
The compounds of formula (I) show an excellent affinity for the CB1 receptor, determined with the experimental conditions described in Devane et. al. Mol. Pharmacol. 34 (1988) 605-613.

T1 sequence (P21554 whole entry): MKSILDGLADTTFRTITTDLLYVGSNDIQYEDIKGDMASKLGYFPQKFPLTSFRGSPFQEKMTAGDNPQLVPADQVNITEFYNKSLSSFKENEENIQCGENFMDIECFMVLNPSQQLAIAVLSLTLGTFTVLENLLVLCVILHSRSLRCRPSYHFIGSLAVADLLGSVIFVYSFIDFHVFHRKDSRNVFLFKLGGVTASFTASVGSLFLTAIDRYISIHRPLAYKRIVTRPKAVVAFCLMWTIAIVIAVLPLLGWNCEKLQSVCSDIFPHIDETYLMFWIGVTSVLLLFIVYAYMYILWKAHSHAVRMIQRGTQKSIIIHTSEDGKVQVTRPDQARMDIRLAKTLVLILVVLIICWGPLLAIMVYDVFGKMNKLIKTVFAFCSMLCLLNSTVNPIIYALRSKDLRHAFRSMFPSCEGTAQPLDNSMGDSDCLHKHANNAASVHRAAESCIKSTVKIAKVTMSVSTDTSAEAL

The IC50 is the point on the concentration scale where inhibition reaches its midpoint. Take `Cc1c(C(=O)NC2CCCCC2)cc(-c2cc(C(F)(F)F)ccc2F)n1C[C@@H]1CCCC[C@H]1O` (racemic) [Example 282, 5-(2-Fluoro-5-trifluoromethyl-phenyl)-1-((1SR,2RS)-2-hydroxy-cyclohexylmethyl)-2-methyl-1H-pyrrole-3-carboxylic acid cyclohexylamide]: the concentration for half-maximal inhibition (IC50) is below 2000 nM.
In turn, `Cc1c(C(=O)NC2CCCCC2)cc(-c2cc(C(F)(F)F)ccc2F)n1C[C@H]1CCCC[C@H]1O` (racemic) [Example 283, 5-(2-Fluoro-5-trifluoromethyl-phenyl)-1-((1RS,2RS)-2-hydroxy-cyclohexylmethyl)-2-methyl-1H-pyrrole-3-carboxylic acid cyclohexylamide] yielded an IC50 below 2000 nM.
The compound `Cc1c(C(=O)N[C@@H]2CCCC[C@H]2O)cc(-c2cc(C(F)(F)F)ccc2F)n1CC1CCCCC1O` (mixture of isomers) [Example 286] yielded an IC50 below 2000 nM.
In the case of `Cc1c(C(=O)NC2CCCCC2)cc(-c2cc(C(F)(F)F)ccc2Cl)n1C[C@H]1CCCC[C@H]1O` (racemic) [Example 294, 5-(2-Chloro-5-trifluoromethyl-phenyl)-1-((1RS,2RS)-2-hydroxy-cyclohexylmethyl)-2-methyl-1H-pyrrole-3-carboxylic acid cyclohexylamide], the IC50 was below 2000 nM.
The result for `CCCCNC(=O)c1cc(-c2ccc(N3CCCC3)cc2)n(CC2CCCCC2)c1C` [Example 19, Cyclohexylmethyl-2-methyl-5-(4-pyrrolidin-1-yl-phenyl)-1H-pyrrole-3-carboxylic acid butylamide] reads below 2000 nM; that for `CCCCNC(=O)c1cc(-c2cc(OC)ccc2OC)n(CC2CCCCC2)c1C` [Example 21, Cyclohexylmethyl-5-(2,5-dimethoxy-phenyl)-2-methyl-1H-pyrrole-3-carboxylic acid butylamide], below 2000 nM.
`CCCCNC(=O)c1cc(-c2cc(C(F)(F)F)cc(C(F)(F)F)c2)n(CC2CCCCC2)c1C` [Example 41, 5-(3,5-Bis-trifluoromethyl-phenyl)-1-cyclohexylmethyl-2-methyl-1H-pyrrole-3-carboxylic acid butylamide] came in with an IC50 below 2000 nM.
For `CCCCNC(=O)c1nc(-c2ccccc2OC)n(CC2CCCCC2)c1C` [Example 52, Cyclohexylmethyl-2-(2-methoxy-phenyl)-5-methyl-1H-imidazole-4-carboxylic acid butylamide], the IC50 was below 2000 nM.
The result for `COc1ccccc1-c1nc(C(=O)NN2CCCCC2)c(C)n1CC1CCCCC1` [Example 54, Cyclohexylmethyl-2-(2-methoxy-phenyl)-5-methyl-1H-imidazole-4-carboxylic acid piperidin-1-ylamide] reads below 2000 nM; that for `COc1ccc(Cl)cc1-c1cc(C(=O)NC2CCCCC2)c(C)n1CC1CCCCC1` [Example 89, 5-(5-Chloro-2-methoxy-phenyl)-1-cyclohexylmethyl-2-methyl-1H-pyrrole-3-carboxylic acid cyclohexylamide], below 2000 nM.
In the case of `COc1cc(C)c(Cl)cc1-c1cc(C(=O)NC2CCCCC2)c(C)n1CC1CCCCC1` [Example 91, 5-(5-Chloro-2-methoxy-4-methyl-phenyl)-1-cyclohexylmethyl-2-methyl-1H-pyrrole-3-carboxylic acid cyclohexylamide] it was below 2000 nM.
For `COc1ccc(F)cc1-c1cc(C(=O)NC2CCCCC2)c(C)n1CC1CC1` [Example 194, Cyclopropylmethyl-5-(5-fluoro-2-methoxy-phenyl)-2-methyl-1H-pyrrole-3-carboxylic acid cyclohexylamide], the IC50 was below 2000 nM.
Take `Cc1c(C(=O)NN2CCCCC2)cc(-c2cc(C(F)(F)F)ccc2Cl)n1CC1CCCCC1` [Example 264, 5-(2-Chloro-5-trifluoromethyl-phenyl)-1-cyclohexylmethyl-2-methyl-1H-pyrrole-3-carboxylic acid piperidin-1-ylamide]: the IC50 was below 2000 nM.
`Cc1c(C(=O)N[C@@H]2CCCC[C@H]2O)cc(-c2cc(C(F)(F)F)ccc2C(F)(F)F)n1CCC1CC1` [Example 290, 5-(2,5-Bis-trifluoromethyl-phenyl)-1-(2-cyclopropyl-ethyl)-2-methyl-1H-pyrrole-3-carboxylic acid ((1R,2R)-2-hydroxy-cyclohexyl)-amide] yielded an IC50 below 2000 nM.
Regarding `Cc1ccc(C(F)(F)F)cc1-c1cc(C(=O)N[C@@H]2CCCC[C@H]2O)c(C)n1CC1CCCCC1` [Example 301, Cyclohexylmethyl-2-methyl-5-(2-methyl-5-trifluoromethyl-phenyl)-1H-pyrrole-3-carboxylic acid ((1R,2R)-2-hydroxy-cyclohexyl)-amide], the concentration for half-maximal inhibition (IC50) is below 2000 nM.
